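48-hour exposure; five concentrations; linearly interpolated endpoints. GI50: concentration for 50% inhibition of growth.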 Calls of active or inactive are those of the source. Rule as the data show it: active = GI50 up to about 1.1 µM and inactive = higher.
Columns and labels:
Experiment in all cases: growth of human tumour cells (NCI), 48 h
[1] = system: A549
[2] = system: CCRF-CEM
[3] = system: HCT-116
[4] = system: HCT-15
[5] = system: HOP-62
[6] = system: Hs-578T
[7] = system: K562
[8] = system: MDA-N
[9] = system: MOLT-4
[10] = system: NCI-H226
[11] = system: NCI/ADR-RES
[12] = system: OVCAR-4
[13] = system: OVCAR-8
[14] = system: SK-OV-3
[15] = system: SNB-75
[16] = system: T47D
[17] = system: UACC-257
[18] = system: UO-31
[19] = system: HL-60

Row | Structure (SMILES) | GI50 [1] | GI50 [2] | GI50 [3] | GI50 [4] [µM] | GI50 [5] | GI50 [6] | GI50 [7] | GI50 [8] | GI50 [9] | GI50 [10] | GI50 [11] | GI50 [12] | GI50 [13] | GI50 [14] | GI50 [15] | GI50 [16] | GI50 [17] | GI50 [18] | GI50 [19]
1 | S=C(Nc1ccc(Cl)cc1)SC1CCCCC1 | 19.2 µM (inactive) | 33.7 µM (inactive) | 25.6 µM (inactive) | 23.2 | 27.7 µM (inactive) | 31.8 µM (inactive) | 36.1 µM (inactive) | 22.8 µM (inactive) | 29.2 µM (inactive) | 72.4 µM (inactive) | 37.1 µM (inactive) | 33.9 µM (inactive) | 31.5 µM (inactive) | 27.8 µM (inactive) | 25.2 µM (inactive) | 22.5 µM (inactive) | 25.9 µM (inactive) | 27 µM (inactive) | –
2 | CNC(=S)N/N=C(C)\C(=N/NC(=S)NC)c1ccccc1 | 29.2 µM (inactive) | – | 31.6 µM (inactive) | 53.1 | > 100 µM (inactive) | 17.8 µM (inactive) | – | 89.7 µM (inactive) | – | 63.7 µM (inactive) | 39.3 µM (inactive) | – | – | > 100 µM (inactive) | 69.8 µM (inactive) | – | > 100 µM (inactive) | 30.7 µM (inactive) | –
3 | COC(=O)c1cc(NC(=O)c2cc(NC(=O)c3cc([N+](=O)[O-])cn3C)cn2C)cn1C | > 100 µM (inactive) | > 100 µM (inactive) | 43.4 µM (inactive) | 82 | > 100 µM (inactive) | – | 61.9 µM (inactive) | > 100 µM (inactive) | 29.8 µM (inactive) | > 100 µM (inactive) | 61.4 µM (inactive) | 40 µM (inactive) | > 100 µM (inactive) | 49.4 µM (inactive) | > 100 µM (inactive) | 12 µM (inactive) | – | 68.4 µM (inactive) | 86.5 µM (inactive)
4 | N[C@@H](CCC(=O)NC(Cc1ccccc1)C(=O)NCP(=O)(O)O)C(=O)O (stereo partly drawn) | > 100 µM (inactive) | – | > 100 µM (inactive) | > 100 | > 100 µM (inactive) | > 100 µM (inactive) | > 100 µM (inactive) | > 100 µM (inactive) | > 100 µM (inactive) | – | > 100 µM (inactive) | – | > 100 µM (inactive) | – | – | > 100 µM (inactive) | > 100 µM (inactive) | > 100 µM (inactive) | > 100 µM (inactive)
5 | CCOC(=O)c1cc(-c2cc(OC)c(OC)c([N+](=O)[O-])c2)c([N+](=O)[O-])n1C | > 10 µM (inactive) | 3.24 µM (inactive) | 5.33 µM (inactive) | 4.58 | – | 4.21 µM (inactive) | 2.83 µM (inactive) | – | 3.5 µM (inactive) | > 10 µM (inactive) | 3.94 µM (inactive) | > 10 µM (inactive) | > 10 µM (inactive) | – | > 10 µM (inactive) | – | 3.02 µM (inactive) | > 10 µM (inactive) | 3.37 µM (inactive)
6 | CC(C)OC1OC(CO)C(O)CC1n1cc(F)c(=O)[nH]c1=O (stereo not drawn) | > 100 µM (inactive) | – | > 100 µM (inactive) | > 100 | – | 86.3 µM (inactive) | 34.4 µM (inactive) | > 100 µM (inactive) | – | > 100 µM (inactive) | > 100 µM (inactive) | > 100 µM (inactive) | > 100 µM (inactive) | – | > 100 µM (inactive) | 48.4 µM (inactive) | > 100 µM (inactive) | > 100 µM (inactive) | –
7 | COc1ccc2c(C(=O)c3cn(CCN4CCOCC4)c4ccccc34)cccc2c1 | 6.76 µM (inactive) | 4.45 µM (inactive) | 27.2 µM (inactive) | 51.8 | > 22 µM (inactive) | – | 36.6 µM (inactive) | 37.8 µM (inactive) | 15.1 µM (inactive) | > 100 µM (inactive) | > 34.4 µM (inactive) | 12.6 µM (inactive) | 43 µM (inactive) | 4.22 µM (inactive) | 88.5 µM (inactive) | 38 µM (inactive) | 75.9 µM (inactive) | > 32 µM (inactive) | 18.3 µM (inactive)
8 | O=S1(=O)c2ccccc2N2CCCc3cc(Cl)cc1c32 | > 100 µM (inactive) | > 100 µM (inactive) | > 100 µM (inactive) | > 100 | 41.1 µM (inactive) | 27.4 µM (inactive) | > 100 µM (inactive) | > 100 µM (inactive) | > 100 µM (inactive) | > 100 µM (inactive) | > 100 µM (inactive) | 46.2 µM (inactive) | > 100 µM (inactive) | 51.9 µM (inactive) | 12.6 µM (inactive) | – | > 100 µM (inactive) | > 100 µM (inactive) | > 100 µM (inactive)
9 | CN1C(=O)C(O)CC1c1cccc(F)c1 (stereo not drawn) | > 100 µM (inactive) | > 100 µM (inactive) | > 100 µM (inactive) | > 100 | > 100 µM (inactive) | – | > 100 µM (inactive) | > 100 µM (inactive) | > 100 µM (inactive) | > 100 µM (inactive) | > 100 µM (inactive) | > 100 µM (inactive) | > 100 µM (inactive) | > 100 µM (inactive) | 55.7 µM (inactive) | – | > 100 µM (inactive) | > 100 µM (inactive) | > 100 µM (inactive)
